Results on nine compounds are retold here after patent publication US20240228504A1, “SUBSTITUTED TRICYCLIC AMIDES, ANALOGUES THEREOF, AND METHODS USING SAME” (Arbutus Biopharma Corporation, priority 2020, published 2024).

In general, EC50 refers to the concentration that produces a half-maximal response.

The test system of the assay is HBV rcDNA in HepDE19 cells. Kind of assay: HepDE19 assay with bDNA quantitation of HBV rcDNA. It counts as cell-based, hepatitis B virus. The conditions noted are these: Hepatitis B virus, HepDE19, HepDE19 assay, inhibition of rcDNA formation, bDNA quantitation; read-out: DE-19bDNA EC50.
For `Cc1cccc2[nH]c(C(=O)N(C)[C@@H]3CCCc4[nH]c(=O)c5cc(F)ccc5c43)cc12` [Compound 491, (R)-N-(8-fluoro-6-oxo-1,2,3,4,5,6-hexahydrophenanthridin-1-y1)-N,4-dimethyl-1H-indole-2-carboxamide], the 50% effective concentration (EC50) turned out to be 20 nM.

Consider `Cc1cc(F)cc2[nH]c(C(=O)N(C)[C@@H]3CCCc4[nH]c(=O)c5cc(F)ccc5c43)cc12` [Compound 492, (R)-6-fluoro-N-(8-fluoro-6-oxo-1,2,3,4,5,6-hexahydrophenanthridin-1-y1)-N,4-dimethyl-1H-indole-2-carboxamide], for which the EC50 came to 30 nM.

Consider `CN(C(=O)c1cc2c(C(F)F)cc(F)cc2[nH]1)[C@@H]1CCCc2[nH]c(=O)c3cc(F)ccc3c21` [Compound 493, (R)-4-(difluoromethyl)-6-fluoro-N-(8-fluoro-6-oxo-1,2,3,4,5,6-hexahydrophenanthridin-1-y1)-N-methyl-1H-indole-2-carboxamide], for which the EC50 is 10 nM.

`CN(Cc1cc2cc(F)c(F)cc2[nH]1)[C@@H]1COCc2[nH]c(=O)c3cc(F)c(F)cc3c21` [Compound 494, (S)-1-(((5,6-difluoro-1H-indol-2-yl)methyl)(methyl)amino)-8,9-difluoro-1,5-dihydro-2H-pyrano[3,4-c]isoquinolin-6(4H)-one]: the concentration giving a half-maximal response (EC50) was 1500 nM.

`CN(C(=O)c1cc2cc(F)c(F)cc2[nH]1)[C@@H]1CCC(O)c2[nH]c(=O)c3cc(F)c(F)cc3c21` (stereo partly drawn) [Compound 503, N-((1R)-8,9-difluoro-4-hydroxy-6-oxo-1,2,3,4,5,6-hexahydrophenanthridin-1-yl)-5,6-difluoro-N-methyl-1H-indole-2-carboxamide]: the EC50 is 20 nM.

For `CN(C(=O)C(F)(F)c1ccccc1)[C@@H]1COCc2[nH]c(=O)c3cc(F)c(F)cc3c21` [Compound 512, (S)-N-(8,9-Difluoro-6-oxo-1,4,5,6-tetrahydro-2H-pyrano[3,4-c]isoquinolin-1-yl)-2,2-difluoro-N-methyl-2-phenylacetamide], the concentration giving a half-maximal response (EC50) worked out at 25000 nM.

As for `[2H][C@@]1(N(C(=O)c2cc3cc(F)c(F)cc3[nH]2)[13C]([2H])([2H])[2H])COCc2[nH]c(=O)c3cc(F)c(F)cc3c21` [Compound 514, (S)-N-(8,9-Difluoro-6-oxo-1,4,5,6-tetrahydro-2H-pyrano[3,4-c]isoquinolin-1-yl-1-d)-5,6-difluoro-N-(methyl-^13C-d3)-1H-indole-2-carboxamide], the concentration giving a half-maximal response (EC50) is 8 nM.

On to `[2H][C@@]1(N(C(=O)c2cc3cc(F)c(C(F)F)cc3[nH]2)[13C]([2H])([2H])[2H])COCc2[nH]c(=O)c3cc(F)c(F)cc3c21` [Compound 515, (S)-N-(8,9-Difluoro-6-oxo-1,4,5,6-tetrahydro-2H-pyrano[3,4-c]isoquinolin-1-yl-1-d)-6-(difluoromethyl)-5-fluoro-N-(methyl-^13C-d3)-1H-indole-2-carboxamide], for which the half-maximal effective concentration (EC50) was 10 nM.

On to `[2H][C@@]1(N(C(=O)c2cc3sc(Cl)cc3[nH]2)[13C]([2H])([2H])[2H])COCc2[nH]c(=O)c3cc(F)c(F)cc3c21` [Compound 516, (S)-2-Chloro-N-(8,9-difluoro-6-oxo-1,4,5,6-tetrahydro-2H-pyrano[3,4-c]isoquinolin-1-yl-1-d)-N-(methyl-^13C-d3)-4H-thieno[3,2-b]pyrrole-5-carboxamide], for which the EC50 amounted to 10 nM.
